# Experiments:
# Test in all cases: relative viability (nuclei count vs DMSO), 5 days (fraction); higher = more cells survive
# Obatoclax + Trametinib = compound: COC1=CC(c2cc3ccccc3[nH]2)=N/C1=C\c1[nH]c(C)cc1C [Obatoclax] + CC(=O)Nc1cccc(-n2c(=O)n(C3CC3)c(=O)c3c(Nc4ccc(I)cc4F)n(C)c(=O)c(C)c32)c1 [Trametinib] (partner 0.02 µM)
# Outline: (§1)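 Medians of duplicate plates are given as relative viability. That measure is the nuclei count in treated wells divided by the count in vehicle wells. Counts were taken on 4× images of lung cancer cell lines in 1536-well plates, 5 days after pin-tool dosing the day after seeding with one drug alone or a fixed anchor-drug dose plus five library-drug doses (not always all listed) in √10 steps.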
# Bortezomib + Tozasertib = compound: CC(C)C[C@H](NC(=O)[C@H](Cc1ccccc1)NC(=O)c1cnccn1)B(O)O [Bortezomib] + Cc1cc(Nc2cc(N3CCN(C)CC3)nc(Sc3ccc(NC(=O)C4CC4)cc3)n2)n[nH]1 [Tozasertib] (partner 0.1 µM)
# Outline: as §1
# [1] = compound: CC1=CC(=NN1)NC2=CC(=NC(=N2)/C=C/C3=CC=CC=C3)N4CCN(CC4)C + O=C(c1cc(Cc2n[nH]c(=O)c3ccccc23)ccc1F)N1CCN(C(=O)C2CC2)CC1 [Olaparib] (partner 8 µM)
# Outline: as §1
# [2] = compound: CC1=CC(=NN1)NC2=CC(=NC(=N2)/C=C/C3=CC=CC=C3)N4CCN(CC4)C + Cc1cc(Nc2cc(N3CCN(C)CC3)nc(Sc3ccc(NC(=O)C4CC4)cc3)n2)n[nH]1 [Tozasertib] (partner 0.1 µM)
# Outline: as §1
Cell Line,relative viability (Obatoclax + Trametinib; first compound 0.01 µM),relative viability (Obatoclax + Trametinib; first compound 0.03162 µM),relative viability (Obatoclax + Trametinib; first compound 0.1 µM),relative viability (Obatoclax + Trametinib; first compound 0.3162 µM),relative viability (Obatoclax + Trametinib; first compound 1 µM),relative viability (Bortezomib + Tozasertib; first compound 0.0002 µM),relative viability (Bortezomib + Tozasertib; first compound 0.000632 µM),relative viability (Bortezomib + Tozasertib; first compound 0.002 µM),relative viability (Bortezomib + Tozasertib; first compound 0.006325 µM),relative viability (Bortezomib + Tozasertib; first compound 0.02 µM),relative viability ([1]; first compound 0.08 µM),relative viability ([1]; first compound 0.253 µM),relative viability ([1]; first compound 0.8 µM),relative viability ([1]; first compound 2.53 µM),relative viability ([1]; first compound 8 µM),relative viability ([2]; first compound 0.08 µM),relative viability ([2]; first compound 0.253 µM),relative viability ([2]; first compound 0.8 µM),relative viability ([2]; first compound 2.53 µM),relative viability ([2]; first compound 8 µM)
SK-LU-1,0.454,0.568,0.447,0.414,0.311,0.284,0.362,0.282,0.102,0.1,0.405,0.515,0.423,0.273,0.125,0.347,0.313,0.304,0.156,0.0914
SK-MES-1,0.635,0.572,0.713,0.554,0.319,0.935,0.933,0.882,0.315,0.127,0.667,0.776,0.566,0.126,0.134,0.881,0.912,0.656,0.177,0.13
SW 900,1.06,0.762,0.931,0.62,0.547,0.522,0.544,0.184,0.103,0.14,0.863,0.89,0.805,0.298,0.107,0.594,0.667,0.559,0.326,0.174
SW 1573,0.669,0.606,0.346,0.144,0.152,0.168,0.172,0.165,0.0802,0.0573,0.442,0.413,0.377,0.111,0.0633,0.213,0.162,0.162,0.133,0.0849
UMC-11,0.669,0.674,0.466,0.643,0.393,0.19,0.208,0.197,0.229,0.204,0.361,0.39,0.395,0.0656,0.167,0.191,0.212,0.206,0.183,0.162

# Source: the supplement of paper PMC10307832
